These results are taken from PMC7722354, “7-Substituted 2-Nitro-5,6-dihydroimidazo[2,1-b][1,3]oxazines: Novel Antitubercular Agents Lead to a New Preclinical Candidate for Visceral Leishmaniasis” (Journal of Medicinal Chemistry, 2017).

In brackets after ≈: the same amount, converted by molar mass. Where two headings read alike, the source gives them in different places. Marks after values point to notes of the source that are not given here.

Series [1] concerns M. tb, strain H37Rv. In words: MABA minimum inhibitory concentration assay (aerobic). Type of series: cell-based, Mycobacterium tuberculosis.
For series [2], the system named is human lung fibroblasts (MRC-5 cells). The series is described as follows: cytotoxicity toward MRC-5 cells (LMPH). It is filed as cell-based. Particulars: MRC5.
The nature of series [3]: kinetic aqueous solubility (Method A). It is filed as physicochemical.
Series [4] deals with Leishmania donovani. In words: L. don amastigote mouse macrophage-based luciferase assay (CDRI). It is filed as cell-based. To be noted: in mouse macrophages, single test (CDRI).
The test system of the next series is Trypanosoma cruzi. In words: T. cruzi growth inhibition on MRC-5 cells (LMPH). It is filed as cell-based. To be noted: MRC5.
Another series has as its system Leishmania infantum. In words: L. inf growth inhibition in mouse macrophages (LMPH). Type of series: cell-based. To be noted: Macrophage, mean of at least two determinations.
Series [5] deals with M. tb, strain H37Rv. The series is described as follows: LORA minimum inhibitory concentration assay (hypoxic). It is filed as cell-based. Particulars: Mycobacterium tuberculosis.
For series [6], the system named is L. donovani. In words: acute VL infection assay (L. don mouse model, LSHTM). Particulars: Leishmania donovani, po, 120 h; 50 mg/kg orally once daily 5 days; liver parasite burden; read-out: in vivo efficacy against L. don (mouse), % inhibition.
The nature of the next series: mouse pharmacokinetics. It is filed as in vivo. To be noted: mice, oral 40 mg/kg.
The subject of series [7] is human lung fibroblasts (MRC-5 cells). On the set-up: method as in PMID 26901446. To be noted: cytotoxicity; cited from earlier work.
The test system of series [8] is Salmonella strains (TA98 and TA100).
Text: Ames Test. […] Two Salmonella strains (TA98 and TA100) were employed, both in the presence and absence of metabolic activation (rat liver S9). Positive controls (2-aminoanthracene, 2-nitrofluorene, and sodium azide) and a negative (DMSO solvent) control were included.
The next series has as its system Caco-2. To be noted: cited from earlier work.
The subject of series [9] is Leishmania donovani. On the set-up: method as in PMID 26901446. To be noted: in mouse macrophages; cited from earlier work.
For series [10], the system named is L. donovani. Also noted: method as in PMID 26901446. To be noted: cited from earlier work.
On the set-up of series [11]: method as in PMID 26901446. Particulars: mice, cited from earlier work.
For series [12], the system named is L. donovani. Particulars: L. don hamster model, 50 mg/kg, 5 days oral dosing.
Experimental: Groups of hamsters having an appropriate infection grading (5–15 amastigotes/100 spleen cell nuclei) were treated with test compounds, starting on day 17 and dosing orally once per day for 5 days, according to the usual procedure.[10] Post-treatment splenic biopsies taken 12 days after the first dose were employed to determine the intensity of infection, as previously reported.[10]
Setting [13] is: Mycobacterium tuberculosis, H37RV, aerobic, read-out: MIC MABA.
[14] abbreviates: water, pH 7, kinetic, water (pH 7), 20 °C, read-out: aq solubility pH 7.
[15] abbreviates: 0.1 M HCl, pH 1, kinetic, 0.1 M HCl (pH 1), 20 °C, read-out: aq solubility pH 1.

Take `O=[N+]([O-])c1cn2c(n1)OC(COc1ccc(-c3ccc(F)nc3)cc1)CC2` (stereo not shown) [compound 55, 7-{[4-(6-Fluoropyridin-3-yl)phenoxy]methyl}-2-nitro-6,7-dihydro-5H-imidazo[2,1-b][1,3]oxazine]: the MIC (commonly the least concentration at which growth counts as inhibited) in the series on M. tb, strain H37Rv [1] (setting [13]) amounted to 0.24 µM (≈ 0.0889 µg/mL); in the series on M. tb, strain H37Rv [5], 3.5 µM (≈ 1.3 µg/mL). Further, the IC50 (as a rule, the concentration that gives 50% inhibition) in [2] is above 64000 nM; in the series with Leishmania donovani [4] it was above 10000 nM; in the series on Trypanosoma cruzi it was 27 nM; in the series on Leishmania infantum, 83 nM. Besides, the solubility (in general, the concentration that dissolves in the medium under given conditions) at 15 min in [3] (setting [14]) came to 0.36 µg/mL (≈ 0.972 µM).
Consider `O=[N+]([O-])c1cn2c(n1)OC(COc1ccc(-c3ccc(F)cc3F)cn1)CC2` (stereo not shown) [compound 62], for which the MIC in the series with M. tb, strain H37Rv [1] (setting [13]) came out at 0.1 µM (≈ 0.0388 µg/mL); against M. tb, strain H37Rv [5], 2.4 µM (≈ 0.932 µg/mL). Further, the IC50 in series [2] was above 64000 nM; in the series with Leishmania donovani [4], 70 nM; in the series on Trypanosoma cruzi, 30 nM; in the series with Leishmania infantum it was 37 nM. Further, the solubility at 15 min was 1.5 µg/mL (≈ 3.86 µM) in [3] (setting [15]) and 0.13 µg/mL (≈ 0.335 µM) in series [3] (setting [14]).
Turning to `O=[N+]([O-])c1cn2c(n1)OC(COc1cnc(-c3ccc(F)cc3)nc1)CC2` (stereo not shown) [compound 139], the MIC in the series on M. tb, strain H37Rv [1] (setting [13]) amounted to 0.27 µM (≈ 0.1 µg/mL); in the series on M. tb, strain H37Rv [5], 20 µM (≈ 7.43 µg/mL). In addition, the IC50 turned out to be 62000 nM in series [2], 70 nM in the series with Leishmania donovani [4], 260 nM with Trypanosoma cruzi and 210 nM in the series on Leishmania infantum. In series [3] (setting [14]), the solubility at 15 min was found to be 0.59 µg/mL (≈ 1.59 µM).
For the compound `O=[N+]([O-])c1cn2c(n1)OC(COc1ncc(-c3ccc(F)cc3)cn1)CC2` (stereo not shown) [compound 129], the MIC with M. tb, strain H37Rv [1] (setting [13]) was 0.02 to 0.04 µM (≈ 0.00743 to 0.0149 µg/mL); with M. tb, strain H37Rv [1] (aerobic, read-out: MIC MABA), 0.04 µM (≈ 0.0149 µg/mL); in the series on M. tb, strain H37Rv [5], 1.7 µM (≈ 0.631 µg/mL). In addition, the IC50 was above 64000 nM in [2], 100 nM in the series on Leishmania donovani [4], 170 nM with Trypanosoma cruzi and 290 nM with Leishmania infantum. Also, the solubility at 15 min in series [3] (setting [14]) worked out at 1.8 µg/mL (≈ 4.85 µM). For the same compound, the inhibition in vivo – broadly, the percentage by which the read-out fell short of the control – at 50 mg/kg in the series with L. donovani [6] was 85%.
Turning to `O=[N+]([O-])c1cn2c(n1)OC(COCc1ccc(-c3ccc(OC(F)(F)F)cc3)cc1)CC2` (stereo not shown) [compound 28], the MIC with M. tb, strain H37Rv [1] (setting [13]) amounted to 0.055 µM (≈ 0.0247 µg/mL); in the series on M. tb, strain H37Rv [5], 1.5 µM (≈ 0.674 µg/mL). The IC50 in series [2] was above 64000 nM; with Leishmania donovani [4], 190 nM; with Trypanosoma cruzi, 2100 nM; in the series on Leishmania infantum, 400 nM. The solubility at 15 min is around 0.058 µg/mL (≈ 0.129 µM) in [3] (water, pH 7, kinetic, pH 7, read-out: solubility at pH 7) and 0.058 µg/mL (≈ 0.129 µM) in series [3] (setting [14]). Moreover, the “AUCinf (extrapolated)” value in the series “mouse pharmacokinetics” is listed as 47.1^e μ·h/mL. Further, in the series “mouse pharmacokinetics”, the Cmax (in general, the peak of the concentration-time curve) was determined as 3300 ng/mL. For the same compound, the Tmax – broadly, the time from dosing to the highest level – in the series “mouse pharmacokinetics” is 8.0 h. Also, the t1/2 in the series “mouse pharmacokinetics” is reported as 5.2 h. Moreover, the inhibition in vivo at 50 mg/kg in the series on L. donovani [6] turned out to be 49%.
Consider `O=[N+]([O-])c1cn2c(n1)OC(COc1cccc(-c3ccc(F)cc3)n1)CC2` (stereo not shown) [compound 99], for which the MIC in the series with M. tb, strain H37Rv [1] (setting [13]) amounted to 1.7 µM (≈ 0.63 µg/mL); against M. tb, strain H37Rv [5], 3 µM (≈ 1.11 µg/mL). Moreover, the IC50 in series [2] was 59000 nM; in the series on Leishmania donovani [4], 310 nM; with Trypanosoma cruzi, 160 nM; with Leishmania infantum, 140 nM. The solubility at 15 min was 0.56 µg/mL (≈ 1.51 µM) in series [3] (setting [15]) and 0.027 µg/mL (≈ 0.0729 µM) in series [3] (setting [14]).
Regarding `C[C@]1(COc2ccc(OC(F)(F)F)cc2)Cn2cc([N+](=O)[O-])nc2O1` [compound 4], the IC50 in series [7] is above 64000 nM; with Leishmania donovani [9] it was 30 nM. Besides, the “mutagenic effect (Ames test)” value in series [8] was “no”. The “permeability Papp A to B” value in the series with Caco-2 is recorded as 22.6 × 10^–6 cm/s. Moreover, the “permeability Papp B to A” value in the series on Caco-2 is given as 24.7 × 10^–6 cm/s. The logD (usually lipophilicity at a set pH, counting ionised and neutral species) in “physchem” was 3.1.
As to `CC1(COc2ccc(OC(F)(F)F)cc2)Cn2cc([N+](=O)[O-])nc2O1` (racemic) [rac-4], the “% inhibition, L. don mouse model” value with L. donovani [10] (6.25 mg/kg po daily for 5 d) is given as 99%. Also, in the series on L. donovani [10] (L. don mouse model), the ED50 (usually the midpoint of the dose-response relation) is listed as 3.0 mg/kg. Further, in series [11] (intravenous 1 mg/kg), the AUClast is recorded as 1.69 μg·;h/mL; the C0 was 880 ng/mL; the CL is listed as 9.5 mL/min/kg; the Vdss (commonly a proportionality between amount in the body and measured concentration, not a real space) is given as 1.7 L/kg. Besides, the t1/2 in series [11] (intravenous 1 mg/kg) is on record as 2.2 h. Also, in series [11] (oral 25 mg/kg), the AUClast is given as 33.5 μ·h/mL, the Cmax is 4100 ng/mL, the “F (oral bioavailability)” value is 79% and the Tmax is 4.0 h.
With `O=[N+]([O-])c1cn2c(n1)OC(COc1ccc(-c3ccc(F)cc3)cc1)CC2` (stereo not shown) [compound 49], the “% inhibition of parasite infection in the spleen” value in the series on L. donovani [12] came out at 51%. Moreover, the minimum inhibitory concentration (MIC) with M. tb, strain H37Rv [1] (Mycobacterium tuberculosis, H37RV, read-out: MIC MABA, aerobic) was 0.18 µM (≈ 0.0665 µg/mL); in the series on M. tb, strain H37Rv [5] it was above 128 µM. The compound further registered an IC50 with Leishmania donovani [4] of 10 nM.
Regarding `CC1(COc2ccc(-c3ccc(F)nc3F)nc2)CCn2cc([N+](=O)[O-])nc2O1` (stereo not shown) [compound 115], the MIC in the series on M. tb, strain H37Rv [1] (setting [13]) worked out at 0.94 µM (≈ 0.379 µg/mL); in the series on M. tb, strain H37Rv [5] it was 18 µM (≈ 7.26 µg/mL). Moreover, the IC50 in [2] is above 64000 nM; in the series with Leishmania donovani [4], 110 nM; in the series with Trypanosoma cruzi, 380 nM; in the series on Leishmania infantum, 280 nM.
For `O=[N+]([O-])c1cn2c(n1)OC(COc1ccc(-c3ccc(F)nc3F)cn1)CC2` (stereo not shown) [compound 109], the MIC in the series with M. tb, strain H37Rv [1] (setting [13]) worked out at 0.25 µM (≈ 0.0973 µg/mL); in the series with M. tb, strain H37Rv [5], 4.2 µM (≈ 1.64 µg/mL). For the same compound, the IC50 in series [2] was above 64000 nM; in the series on Leishmania donovani [4] it was above 10000 nM; in the series on Trypanosoma cruzi, 290 nM; in the series on Leishmania infantum it was 190 nM.
As to `CC1(COc2ccc(-c3ccc(OC(F)(F)F)cc3)nc2)CCn2cc([N+](=O)[O-])nc2O1` (stereo not shown) [compound 96], the MIC with M. tb, strain H37Rv [1] (setting [13]) is 0.05 µM (≈ 0.0225 µg/mL); against M. tb, strain H37Rv [5], 0.88 µM (≈ 0.396 µg/mL). For the same compound, the IC50 in series [2] was above 64000 nM; in the series on Leishmania donovani [4], 650 nM; in the series with Trypanosoma cruzi, 250 nM; in the series on Leishmania infantum, 4000 nM.
Regarding `CC1(COc2ccc(-c3ccc(F)cc3F)nc2)CCn2cc([N+](=O)[O-])nc2O1` (stereo not shown) [compound 92], the MIC with M. tb, strain H37Rv [1] (setting [13]) worked out at 0.4 µM (≈ 0.161 µg/mL); in the series on M. tb, strain H37Rv [5], 4.9 µM (≈ 1.97 µg/mL). Besides, the IC50 in series [2] is above 64000 nM; in the series with Leishmania donovani [4] it was 310 nM; in the series with Trypanosoma cruzi, 270 nM; in the series on Leishmania infantum it was 170 nM.
